Test results: patent US8415469B2, “Compounds and methods for kinase modulation, and indications therefor” (Plexxikon Inc., priority 2005, dated 2013)

Columns and labels:
Format in all cases: biochemical
Kit = molecular target: T1, Kit (Homo sapiens, UniProt P10721); experiment: AlphaScreen kinase assay, Kit; conditions: read-out: IC50, activity toward kinase Kit
T1 construct: P1332.N6 BI PTP KIT M552-K948-X COD; His6 (N); made in house; host or cells: E. coli (PTP1B co-expressed)

Flt1 = molecular target: T2, Flt1 (Homo sapiens, UniProt P17948); experiment: AlphaScreen kinase assay, Flt1; conditions: read-out: IC50, activity toward kinase Flt1
T2 construct: P1826.pETN6 BI-PTP FLT1 M799-D1165-X WT; His6 (N); made in house; host or cells: E. coli (PTP1B co-expressed)
T2 sequence (P17948 with tags, fused parts or gaps): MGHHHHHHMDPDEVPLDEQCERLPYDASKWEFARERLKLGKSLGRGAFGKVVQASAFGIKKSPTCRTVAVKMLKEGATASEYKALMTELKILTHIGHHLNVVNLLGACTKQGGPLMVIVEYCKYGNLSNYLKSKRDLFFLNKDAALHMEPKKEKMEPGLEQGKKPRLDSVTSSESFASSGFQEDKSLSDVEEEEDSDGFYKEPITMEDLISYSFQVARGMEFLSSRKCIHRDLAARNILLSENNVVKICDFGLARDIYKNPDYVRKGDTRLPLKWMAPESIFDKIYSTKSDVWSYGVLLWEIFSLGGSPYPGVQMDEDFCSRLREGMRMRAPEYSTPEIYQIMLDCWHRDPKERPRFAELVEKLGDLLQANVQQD

FGFR1 = molecular target: T3, FGFR1 (Homo sapiens, UniProt P11362, C488A/C584S); experiment: AlphaScreen kinase assay, FGFR1; conditions: read-out: IC50, activity toward kinase FGFR
T3 construct: P1351.pET N6 BI-PTP FGFR A458-E765-X C488A, C584S; made in house; host or cells: E. coli (PTP1B co-expressed)
T3 sequence (P11362 458-765 C488A/C584S): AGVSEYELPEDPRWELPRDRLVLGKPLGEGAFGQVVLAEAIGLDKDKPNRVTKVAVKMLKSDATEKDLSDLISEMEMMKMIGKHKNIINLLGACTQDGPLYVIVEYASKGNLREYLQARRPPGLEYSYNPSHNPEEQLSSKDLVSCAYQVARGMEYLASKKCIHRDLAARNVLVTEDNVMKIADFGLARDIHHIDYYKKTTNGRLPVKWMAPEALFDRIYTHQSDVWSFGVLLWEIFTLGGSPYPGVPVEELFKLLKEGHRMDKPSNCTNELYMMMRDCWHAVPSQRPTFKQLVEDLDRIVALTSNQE

B-Raf V600E = molecular target: T4, B-Raf V600E (Homo sapiens, UniProt P15056, V600E); experiment: AlphaScreen kinase assay, B-Raf V600E; conditions: read-out: IC50, activity toward kinase B-Raf V600E
T4 construct: P4254. pFastBacBD-CDC37 BRAF D437-K722-X, V600E; His6 with pFastBac HT leader (TEV site) (N); made in house; host or cells: Sf9 (baculovirus; chaperone CDC37 co-expressed)
T4 sequence (P15056 with tags, fused parts or gaps V600E): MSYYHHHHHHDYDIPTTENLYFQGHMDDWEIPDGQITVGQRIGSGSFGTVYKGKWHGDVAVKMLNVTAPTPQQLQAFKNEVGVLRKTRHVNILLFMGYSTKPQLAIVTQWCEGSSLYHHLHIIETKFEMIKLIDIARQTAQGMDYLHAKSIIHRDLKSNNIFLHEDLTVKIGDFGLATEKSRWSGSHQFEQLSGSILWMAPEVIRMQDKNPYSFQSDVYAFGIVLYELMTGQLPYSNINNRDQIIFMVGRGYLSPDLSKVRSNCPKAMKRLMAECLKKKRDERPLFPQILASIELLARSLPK

Jnk1 = molecular target: T5, Jnk1 (Homo sapiens, UniProt P45983); experiment: AlphaScreen kinase assay, Jnk1; conditions: read-out: IC50, activity toward kinase Jnk1
T5 construct: purchased Upstate Biotechnology
T5 sequence (P45983 whole entry): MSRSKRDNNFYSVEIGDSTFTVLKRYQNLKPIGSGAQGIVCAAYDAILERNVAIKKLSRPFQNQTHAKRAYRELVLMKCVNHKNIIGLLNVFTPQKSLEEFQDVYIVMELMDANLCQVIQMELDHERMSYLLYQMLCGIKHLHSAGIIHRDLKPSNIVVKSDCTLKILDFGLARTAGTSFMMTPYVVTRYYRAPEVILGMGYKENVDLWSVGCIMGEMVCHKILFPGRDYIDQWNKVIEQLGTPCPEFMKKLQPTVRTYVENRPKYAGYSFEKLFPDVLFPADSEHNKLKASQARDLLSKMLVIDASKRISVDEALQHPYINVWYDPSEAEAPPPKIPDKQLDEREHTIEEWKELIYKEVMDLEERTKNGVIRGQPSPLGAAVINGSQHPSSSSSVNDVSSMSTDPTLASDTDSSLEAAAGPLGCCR

Fms = molecular target: T6, Fms (Homo sapiens, UniProt P07333); experiment: AlphaScreen kinase assay, Fms; conditions: read-out: IC50, activity toward kinase Fms
T6 construct: purchased Upstate Biotechnology
T6 sequence (P07333 20-972): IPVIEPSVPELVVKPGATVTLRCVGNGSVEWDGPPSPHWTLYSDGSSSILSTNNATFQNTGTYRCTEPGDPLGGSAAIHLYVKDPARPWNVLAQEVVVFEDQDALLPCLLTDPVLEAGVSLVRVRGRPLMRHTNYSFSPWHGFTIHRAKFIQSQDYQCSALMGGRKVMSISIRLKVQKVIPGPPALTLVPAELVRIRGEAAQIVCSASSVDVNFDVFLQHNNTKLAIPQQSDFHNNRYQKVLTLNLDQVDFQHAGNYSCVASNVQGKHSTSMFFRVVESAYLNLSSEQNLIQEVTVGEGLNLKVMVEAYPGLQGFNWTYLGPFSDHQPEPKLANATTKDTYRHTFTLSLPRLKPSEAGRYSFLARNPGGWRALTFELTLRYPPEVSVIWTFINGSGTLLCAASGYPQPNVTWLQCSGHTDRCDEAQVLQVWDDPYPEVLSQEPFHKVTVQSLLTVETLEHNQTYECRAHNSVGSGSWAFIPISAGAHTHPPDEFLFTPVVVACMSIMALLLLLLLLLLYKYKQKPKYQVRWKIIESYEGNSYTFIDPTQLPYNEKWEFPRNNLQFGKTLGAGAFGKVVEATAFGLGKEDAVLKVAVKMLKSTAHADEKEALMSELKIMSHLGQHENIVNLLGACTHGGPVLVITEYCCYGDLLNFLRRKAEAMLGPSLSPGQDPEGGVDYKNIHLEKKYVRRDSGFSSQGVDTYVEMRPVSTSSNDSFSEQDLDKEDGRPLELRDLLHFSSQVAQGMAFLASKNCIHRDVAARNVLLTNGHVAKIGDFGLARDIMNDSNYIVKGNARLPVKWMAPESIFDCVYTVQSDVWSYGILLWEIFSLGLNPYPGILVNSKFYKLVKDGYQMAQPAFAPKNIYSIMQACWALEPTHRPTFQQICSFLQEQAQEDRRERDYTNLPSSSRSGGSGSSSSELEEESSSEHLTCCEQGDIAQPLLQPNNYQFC

Src = molecular target: T7, Src (Homo sapiens, UniProt P12931); experiment: AlphaScreen kinase assay, Src; conditions: read-out: IC50, activity toward kinase Src
T7 construct: P1144. pET-N6 BI-PTP SRC V86-L536-X; made in house
T7 sequence (P12931 with tags, fused parts or gaps): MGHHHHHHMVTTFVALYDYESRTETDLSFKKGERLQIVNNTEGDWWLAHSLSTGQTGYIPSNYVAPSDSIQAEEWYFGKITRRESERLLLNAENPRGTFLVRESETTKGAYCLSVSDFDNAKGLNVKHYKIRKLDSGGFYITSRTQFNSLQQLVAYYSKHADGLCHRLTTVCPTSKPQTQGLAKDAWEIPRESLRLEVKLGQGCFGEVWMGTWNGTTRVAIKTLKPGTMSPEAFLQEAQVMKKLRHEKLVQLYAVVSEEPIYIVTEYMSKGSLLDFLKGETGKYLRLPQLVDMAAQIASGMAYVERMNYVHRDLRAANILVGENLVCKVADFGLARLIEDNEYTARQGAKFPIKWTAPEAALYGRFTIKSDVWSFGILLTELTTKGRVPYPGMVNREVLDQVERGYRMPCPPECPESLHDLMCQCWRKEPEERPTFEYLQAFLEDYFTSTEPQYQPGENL

Stk6 = molecular target: T8, Stk6 (Homo sapiens, UniProt O14965); experiment: Z'-Lyte FRET kinase assay (Invitrogen), Stk6; conditions: read-out: IC50, activity toward kinase Stk6
T8 construct: purchased Invitrogen (Carlsbad, Calif.), screening service
T8 sequence (O14965 1-403): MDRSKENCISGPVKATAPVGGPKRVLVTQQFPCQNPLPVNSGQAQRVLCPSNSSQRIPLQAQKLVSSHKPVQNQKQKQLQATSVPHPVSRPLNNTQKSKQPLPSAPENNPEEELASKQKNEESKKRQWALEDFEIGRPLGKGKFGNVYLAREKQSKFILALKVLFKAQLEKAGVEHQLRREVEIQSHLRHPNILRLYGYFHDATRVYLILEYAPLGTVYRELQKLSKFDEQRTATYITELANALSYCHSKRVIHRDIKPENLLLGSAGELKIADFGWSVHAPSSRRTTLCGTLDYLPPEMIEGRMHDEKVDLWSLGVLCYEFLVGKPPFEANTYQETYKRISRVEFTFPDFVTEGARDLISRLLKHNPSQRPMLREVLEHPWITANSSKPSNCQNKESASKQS

c-Raf-1 = molecular target: T9, c-Raf-1 (Homo sapiens, UniProt P04049); experiment: AlphaScreen kinase assay, c-Raf-1; conditions: read-out: IC50, activity toward kinase c-Raf-1
T9 construct: purchased Upstate Biotechnology
T9 sequence (P04049 whole entry): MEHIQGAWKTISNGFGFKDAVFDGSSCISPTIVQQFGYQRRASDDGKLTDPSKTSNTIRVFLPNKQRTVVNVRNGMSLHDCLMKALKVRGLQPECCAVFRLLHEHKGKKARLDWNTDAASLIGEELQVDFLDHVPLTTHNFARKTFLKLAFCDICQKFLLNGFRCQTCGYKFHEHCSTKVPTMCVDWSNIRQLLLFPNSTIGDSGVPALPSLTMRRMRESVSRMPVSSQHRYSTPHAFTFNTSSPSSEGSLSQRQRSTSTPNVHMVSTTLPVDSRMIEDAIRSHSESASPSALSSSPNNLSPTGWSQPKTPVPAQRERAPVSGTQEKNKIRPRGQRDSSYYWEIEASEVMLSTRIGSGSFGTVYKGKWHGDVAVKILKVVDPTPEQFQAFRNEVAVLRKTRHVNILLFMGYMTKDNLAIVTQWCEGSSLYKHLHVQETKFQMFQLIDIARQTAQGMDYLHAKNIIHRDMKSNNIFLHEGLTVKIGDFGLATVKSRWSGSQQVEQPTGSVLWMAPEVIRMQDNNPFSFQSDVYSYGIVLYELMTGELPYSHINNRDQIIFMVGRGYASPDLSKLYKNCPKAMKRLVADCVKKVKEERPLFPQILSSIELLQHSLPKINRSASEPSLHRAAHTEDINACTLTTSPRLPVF

B-Raf = molecular target: T10, B-Raf (Homo sapiens, UniProt P15056); experiment: AlphaScreen kinase assay, B-Raf; conditions: read-out: IC50, activity toward kinase B-Raf
T10 construct: purchased Upstate Biotechnology
T10 sequence (P15056 whole entry): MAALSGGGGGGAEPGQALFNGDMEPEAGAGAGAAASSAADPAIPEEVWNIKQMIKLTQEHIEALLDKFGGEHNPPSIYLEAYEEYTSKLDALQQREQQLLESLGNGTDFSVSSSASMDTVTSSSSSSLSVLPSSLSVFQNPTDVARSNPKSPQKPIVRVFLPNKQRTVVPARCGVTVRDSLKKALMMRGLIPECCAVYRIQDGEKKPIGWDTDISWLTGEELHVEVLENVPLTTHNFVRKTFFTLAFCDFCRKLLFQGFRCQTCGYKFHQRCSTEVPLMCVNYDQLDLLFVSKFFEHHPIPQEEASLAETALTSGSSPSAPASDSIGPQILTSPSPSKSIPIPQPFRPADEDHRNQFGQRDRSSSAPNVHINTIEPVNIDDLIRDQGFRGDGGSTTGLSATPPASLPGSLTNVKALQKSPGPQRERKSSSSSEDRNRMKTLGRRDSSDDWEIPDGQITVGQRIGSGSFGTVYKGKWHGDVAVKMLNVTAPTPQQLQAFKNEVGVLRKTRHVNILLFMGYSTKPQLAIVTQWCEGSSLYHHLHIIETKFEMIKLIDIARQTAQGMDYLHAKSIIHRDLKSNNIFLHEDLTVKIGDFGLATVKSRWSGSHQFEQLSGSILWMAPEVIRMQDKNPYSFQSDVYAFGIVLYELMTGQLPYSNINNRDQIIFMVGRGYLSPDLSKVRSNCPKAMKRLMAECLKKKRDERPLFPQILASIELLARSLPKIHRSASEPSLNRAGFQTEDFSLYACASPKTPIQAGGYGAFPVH

T1 sequence (P10721 with tags, fused parts or gaps): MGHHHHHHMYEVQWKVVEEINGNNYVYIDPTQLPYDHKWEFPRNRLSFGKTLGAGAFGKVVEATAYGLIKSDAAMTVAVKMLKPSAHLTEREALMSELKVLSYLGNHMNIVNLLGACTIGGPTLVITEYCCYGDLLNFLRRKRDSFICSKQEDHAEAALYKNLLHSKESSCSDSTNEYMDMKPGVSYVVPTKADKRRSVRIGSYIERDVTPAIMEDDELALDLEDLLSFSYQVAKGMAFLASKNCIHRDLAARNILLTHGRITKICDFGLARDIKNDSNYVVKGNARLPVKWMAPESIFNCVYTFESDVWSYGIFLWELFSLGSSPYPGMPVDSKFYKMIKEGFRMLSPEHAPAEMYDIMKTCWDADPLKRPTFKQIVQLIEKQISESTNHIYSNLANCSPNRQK

Structure (SMILES) | IC50 (Kit) [µM] | IC50 (Flt1) [µM] | IC50 (FGFR1) [µM] | IC50 (B-Raf V600E) [µM] | IC50 (Jnk1) [µM] | IC50 (Fms) [µM] | IC50 (Src) [µM] | IC50 (Stk6) [µM] | IC50 (c-Raf-1) [µM] | IC50 (B-Raf) [µM]
c1cc2cc(-c3ccoc3)cnc2[nH]1 [Compound P-0372] |  |  |  |  |  |  |  | ≤ 10 |  | 
Cc1ccccc1-c1ccnc2[nH]cc(Sc3cccs3)c12 [Compound P-0441] |  |  |  | ≤ 10 |  |  |  | ≤ 10 |  | 
N#Cc1ccnc2[nH]cc(Sc3cccs3)c12 [Compound P-0370] |  |  |  |  |  |  |  | ≤ 10 |  | 
COc1cccc(-c2ccnc3[nH]cc(Sc4cccs4)c23)c1 [Compound P-0160] |  |  |  | ≤ 10 |  |  |  | ≤ 10 |  | 
O=C(c1c[nH]c2ncccc12)C1CCCCC1 [Compound P-0407] |  |  |  |  |  |  |  | ≤ 10 |  | 
Cc1cccc(N(C)c2ccnc3[nH]ccc23)c1 [Compound P-0155] |  |  |  |  |  |  |  | ≤ 10 |  | 
CC(C)CNc1ccc(C(=O)c2c[nH]c3ncccc23)cn1 [Compound P-0251] |  |  |  |  |  |  |  | ≤ 10 |  | 
O=C1c2ccccc2C(=O)N1Cc1ccc(-c2cnc3[nH]ccc3c2)cc1 [Compound P-0281] |  |  |  |  |  |  |  | ≤ 10 |  | 
FC(F)(F)c1cccc(-c2ccnc3[nH]cc(Sc4ccccn4)c23)c1 [Compound P-0290] |  |  |  |  |  |  |  | ≤ 10 |  | 
COc1ccccc1Cc1c[nH]c2ncccc12 [Compound P-0406] |  |  |  |  |  |  |  | ≤ 10 |  | 
c1ccc(Nc2c[nH]c3ncccc23)cc1 [Compound P-0221, N-phenyl-1H-pyrrolo[2,3-b]pyridin-3-amine] |  |  |  |  |  |  |  | ≤ 10 |  | 
COc1cccc(-c2cnc3[nH]cc(Sc4cccs4)c3c2)c1 [Compound P-0417] |  |  |  |  |  |  |  | ≤ 10 |  | 
Brc1c[nH]c2ncccc12 [Compound P-0201] |  |  |  |  |  |  |  | ≤ 10 |  | 

The next lines start with the values.

IC50 (Kit) [µM] | IC50 (Flt1) [µM] | IC50 (FGFR1) [µM] | IC50 (B-Raf V600E) [µM] | IC50 (Jnk1) [µM] | IC50 (Fms) [µM] | IC50 (Src) [µM] | IC50 (Stk6) [µM] | IC50 (c-Raf-1) [µM] | IC50 (B-Raf) [µM] | Structure (SMILES)
≤ 10 | ≤ 10 | ≤ 10 | ≤ 10 | ≤ 10 | ≤ 10 | ≤ 10 |  |  |  | CCCC(=O)Nc1ccc(F)c(C(O)c2c[nH]c3ncc(-c4cccnc4)cc23)c1F (stereo not drawn) [Compound P-1366]
 |  | ≤ 10 | ≤ 10 |  |  | ≤ 10 |  | ≤ 10 | ≤ 10 | CN(C)S(=O)(=O)Nc1ccc(F)c(C(=O)c2c[nH]c3ncc(Cl)cc23)c1F [Compound P-1258, Dimethylamine-1-sulfonic acid [3-(5-chloro-1H-pyrrolo[2,3-b]pyridine-3-carbonyl)-2,4-difluorophenyl]-amide]
 |  | ≤ 10 | ≤ 10 |  | ≤ 10 | ≤ 10 |  | ≤ 10 | ≤ 10 | CCCCS(=O)(=O)Nc1ccc(F)c(C(=O)c2c[nH]c3ncc(Cl)cc23)c1F [Compound P-1265, Butane-1-sulfonic acid [3-(5-chloro-1H-pyrrolo[2,3-b]pyridine-3-carbonyl)-2,4-difluoro-phenyl]-amide]
 |  |  |  |  |  |  | ≤ 10 |  |  | O=C(c1ccc(NCC2CCCCC2)nc1)c1c[nH]c2ncccc12 [Compound P-0471]
≤ 10 |  | ≤ 10 | ≤ 10 | ≤ 10 | ≤ 10 | ≤ 10 |  | ≤ 10 | ≤ 10 | CCCS(=O)(=O)Nc1ccc(F)c(C(=O)c2c[nH]c3ncc(-c4cccc(N(C)C)c4)cc23)c1F [Compound P-0876, Propane-1-sulfonic acid {3-[5-(3-dimethylamino-phenyl)-1H-pyrrolo[2,3-b]pyridine-3-carbonyl]-2,4-difluoro-phenyl}-amide]
≤ 10 | ≤ 10 | ≤ 10 | ≤ 10 |  | ≤ 10 | ≤ 10 |  |  | ≤ 10 | COCCOc1ccc(F)c(C(=O)c2c[nH]c3ncc(-c4cccc(NS(C)(=O)=O)c4)cc23)c1F [Compound P-1472, N-(3-{3-[2,6-Difluoro-3-(2-methoxy-ethoxy)-benzoyl]-1H-yrrolo[2,3-b]pyridin-5-yl}-phenyl)-methanesulfonamide]
≤ 10 |  | ≤ 10 | ≤ 10 |  |  | ≤ 10 |  | ≤ 10 | ≤ 10 | CCCS(=O)(=O)Nc1ccc(F)c(C(=O)c2c[nH]c3ncc(-c4ccc(OC)cc4)cc23)c1F [Compound P-0877, Propane-1-sulfonic acid {2,4-difluoro-3-[5-(4-methoxy-phenyl)-1H-pyrrolo[2,3-b]pyridine-3-carbonyl]-phenyl}-amide]
 |  |  |  |  |  |  | ≤ 10 |  |  | c1coc(-c2ccnc3[nH]ccc23)c1 [Compound P-0445]
≤ 10 |  | ≤ 10 | ≤ 10 |  |  | ≤ 10 |  | ≤ 10 | ≤ 10 | CCCS(=O)(=O)Nc1ccc(F)c(C(=O)c2c[nH]c3ncc(F)cc23)c1F [Compound P-0907, Propane-1-sulfonic acid [2,4-difluoro-3-(5-fluoro-1H-pyrrolo[2,3-b]pyridine-3-carbonyl)-phenyl]-amide]
 |  | ≤ 10 | ≤ 10 |  |  | ≤ 10 |  | ≤ 10 |  | CN(C)S(=O)(=O)Nc1ccc(F)c(C(=O)c2c[nH]c3ncccc23)c1F [Compound P-0950, Dimethylamine-1-sulfonic acid [3-(1H-pyrrolo[2,3-b]pyridine-3-carbonyl)-2,4-difluoro-phenyl]-amide]
≤ 10 |  | ≤ 10 | ≤ 10 |  |  | ≤ 10 |  | ≤ 10 | ≤ 10 | CCCS(=O)(=O)Nc1ccc(F)c(C(=O)c2c[nH]c3ncc(OCCN(CC)CC)cc23)c1F [Compound P-1254, Propane-1-sulfonic acid {3-[5-(2-diethylamino-ethoxy)-1H-pyrrolo[2,3-b]pyridine-3-carbonyl]-2,4-difluoro-phenyl}-amide]
 |  |  |  |  |  |  | ≤ 10 |  |  | Cn1nc(C(C)(C)C)cc1C(=O)c1c[nH]c2nccc(-c3cccc(/C=C/C(=O)O)c3)c12 [Compound P-0546]
 |  | ≤ 10 | ≤ 10 |  | ≤ 10 | ≤ 10 |  | ≤ 10 |  | COC(=O)Nc1ccc(F)c(C(=O)c2c[nH]c3ncc(Br)cc23)c1F [Compound P-1448]
≤ 10 | ≤ 10 | ≤ 10 | ≤ 10 |  | ≤ 10 | ≤ 10 |  |  | ≤ 10 | O=C(COc1ccc(F)c(Cc2c[nH]c3ncc(-c4cccnc4)cc23)c1F)NCc1ccccc1 [Compound P-1469, N-Benzyl-2-[2,4-difluoro-3-(5-pyridin-3-yl-1H-pyrrolo[2,3-b]pyridin-3-ylmethyl)-phenoxy]-acetamide]
≤ 10 |  | ≤ 10 |  | ≤ 10 | ≤ 10 | ≤ 10 |  | ≤ 10 | ≤ 10 | COc1cccc(C(=O)c2c[nH]c3ncc(-c4ccccc4)cc23)c1F [Compound P-1338, (2-Fluoro-3-methoxy-phenyl)-(5-phenyl-1H-pyrrolo[2,3-b]pyridin-3-yl)-methanone]
 |  | ≤ 10 | ≤ 10 |  |  | ≤ 10 |  | ≤ 10 |  | O=S(=O)(Nc1ccc(F)c(Cc2c[nH]c3ncc(-c4cccnc4)cc23)c1F)c1ccccc1 [Compound P-1398]
≤ 10 | ≤ 10 | ≤ 10 | ≤ 10 | ≤ 10 | ≤ 10 | ≤ 10 |  | ≤ 10 | ≤ 10 | CCCS(=O)(=O)Nc1cccc(C(=O)c2c[nH]c3ncc(-c4cccnc4)cc23)c1F [Compound P-1251, Propane-1-sulfonic acid [2-fluoro-3-(5-pyridin-3-yl-1H-pyrrolo[2,3-b]pyridine-3-carbonyl)-phenyl]-amide]
